Reference: ChEMBL document CHEMBL1143987, “Structure and estrogenic activity of new lignans from Iryanthera lancifolia” (2008)
Active and inactive are the calls of the source. The calls are words filed in the database; no cut-off is given here.

Experiments:
Format in all cases: functional
MCF7 [1] = test: Estrogenic potency in human MCF7 BUS cells assessed as drug level inducing maximal cell proliferation
MCF7 [2] = test: Proliferative effect in human MCF7 BUS cells assessed as ratio of increase in cell number in drug treated to control
MCF7 [3] = test: Proliferative effect in human MCF7 BUS cells assessed as increase in cell number relative to 17-beta estradiol; design: concentration or dose not given beside the values
MCF7 [4] = test: Proliferative potency in human MCF7 BUS cells assessed as induction of maximal cell proliferation relative to 17-beta estradiol

SMILES | MED (MCF7 [1]) [µM] | Ratio (MCF7 [2]) | Activity (MCF7 [3]) [%] | Activity (MCF7 [4]) [%] | Activity (MCF7 [2])
COc1cc(C(=O)[C@@H](C)[C@H](C)Cc2ccc3c(c2)OCO3)ccc1O [OLEIFERIN D] | 10 | 4 | 42.8 | 0.01 | 
C[C@@H]1[C@@H](c2ccc(O)cc2)c2cc(O)ccc2C[C@H]1C | 10 | 6.4 | 77.8 | 0.01 | 
C/C=C/c1cc(OC)c2c(c1)[C@@H](C)[C@H](c1ccc(O)c(OC)c1)O2 [LICARINE A] | 10 | 2.8 | 26.4 | 0.01 | 
CCO[C@@H](c1ccc2c(c1)OCO2)[C@@H](C)[C@H](C)Cc1ccc2c(c1)OCO2 | 10 | 6.9 | 84 | 0.01 | 
C[C@]12CC[C@@H]3c4ccc(O)cc4CC[C@H]3[C@@H]1CC[C@@H]2O [ESTRADIOL] | 0.001 | 8 |  |  | 
C[C@H](Cc1ccc2c(c1)OCO2)[C@H](C)C(=O)c1ccc(O)cc1 | 10 | 4.51 | 50.1 | 0.01 | 
COc1ccc(CCC(=O)c2c(O)cc(O)cc2OC)cc1 | 10 | 6.6 | 80.7 | 0.01 | 
Oc1ccc2c(c1)O[C@H](c1ccc3c(c1)OCO3)CC2 | 10 | 5.7 | 67.1 | 0.01 | 
C[C@H](Cc1ccc(O)cc1)[C@H](C)Cc1ccc2c(c1)OCO2 | 10 | 5.8 | 68.7 | 0.01 | 
C[C@H](Cc1ccc2c(c1)OCO2)[C@@H](C)Cc1ccc2c(c1)OCO2 [MACHILIN A] | 10 | 1.9 | 13.5 | 0.01 | 
COc1cc(C[C@H](C)[C@H](C)Cc2ccc3c(c2)OCO3)ccc1O [AUSTROBAILIGNAN 6] |  |  | 0 | 0 | inactive
C/C=C/c1cc(OC)c2c(c1)[C@@H](C)[C@H](c1ccc3c(c1)OCO3)O2 [LICARINE B] |  |  | 0 | 0 | inactive
COc1ccc([C@H]2Oc3c(OC)cc(C=O)cc3[C@@H]2C)cc1O [PERSEAL F] |  |  | 0 | 0 | inactive
COc1cc(O)cc(O)c1C(=O)CCc1ccc2c(c1)OCO2 | 10 | 2.5 | 22.1 | 0.01 | 
C[C@@H]([C@H](C)Cc1ccc2c(c1)OCO2)[C@@H](O)c1ccc2c(c1)OCO2 [OLEIFERIN C] | 10 | 4.4 | 47.8 | 0.01 | 
C[C@@H]1[C@@H](c2ccc3c(c2)OCO3)c2cc3c(cc2C[C@H]1C)OCO3 [CAGAYANINE] | 10 | 2.2 | 17.9 | 0.01 | 
C/C(=C/c1ccc(O)cc1)C(C)Cc1ccc(O)cc1 (stereo unspecified) | 10 | 6.2 | 73.7 | 0.01 | 
C[C@@H]([C@H](C)Cc1ccc2c(c1)OCO2)[C@H](O)c1ccc2c(c1)OCO2 |  |  | 0 | 0 | inactive
